This is an account of results in patent publication US20240400986A1, “MEMBRANE BOUND COMPOSITIONS AND METHODS RELATING TO SAME” (FLAGSHIP PIONEERING INNOVATIONS VII, LLC, priority 2021, published 2024).

The test system of data set [1] is neuronal cell line derived from human neuroblastoma. The following applies: neuronal cells, dose 100 nM, 24 hours.
Data set [2] has as its system cardiomyocytic cell line derived from human ventricular heart tissue. Briefly: Small molecule compound screen of gigasome production in cardiomyocytic monocultures.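 For all read-outs here: gigasomes shed into the culture medium were imaged by confocal microscopy and counted as round particles lacking nuclear signal, extrapolated to the whole well, fold change is relative to DMSO vehicle.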 To be noted: for Number of Gigasomes Produced: Table 22, cardiomyocytes, 24 hours.
Description: For the screening, a total of 100 randomly organized compounds (TargetMol) were divided in 5 groups. Each group included an untreated condition, a vehicular DMSO control, and a known high-gigasome producing condition to comparatively study gigasome production rates. As a cell death control group, 500 nM Staurosporine was added to induce apoptosis. Cultures were incubated for 24 hours under gigasome inducing conditions at concentrations ranging between 10 nM and 10,000 nM. […] The Zeiss ZEN Blue software was used to distribute imaging fields of view (positions) to create an unbiased imaging sample of a well. 5 images were taken using a Zeiss LSM 900 confocal microscope. […] The BioApps ZEN software package was used to perform cell nucleus segmentation and counting. After 24 hours, gigasomes were harvested from the cell culture media by gently removing from the top of each 96-well ⅔ of the total volume without disturbing the cell layer (containing the settled gigasomes) and by adding to each well the same amount of PBS containing 0.5 mM EDTA. The wells were washed twice gently, and the gigasome-containing media/0.5 mM EDTA PBS wash was transferred into the well of a 384-well glass bottom plate. Cells remaining in the 96-well plates were assessed for viability using CellTiter-Glo (Promega).
For gigasome analysis in 384-well plates, the Zeiss ZEN Blue software was used to distribute positions to create an unbiased imaging sample of a well. 6 images per well were taken using a Zeiss LSM 900 confocal microscope. […] A watershed binary segmentation step was performed to separate grouped objects. For each particle in the mask, characteristic parameters of the particle were calculated and saved. […] Particles of interest were identified by thresholding by area and circularity. […] Circularity, defined by the formula 4pi(area/perimeter^2, was set to be between 0.8, where a value of 1.0 is a perfect circle, and a value of 0 is a line. Gigasomes were identified from the particles of interest by thresholding by mean nuclear signal. The nuclear signal threshold was set using a value equal to one quarter of a threshold value calculated by the Li auto-threshold algorithm applied to the distribution of all particles of interest. Particles of interest with nuclear signal below this value were considered “negative” for nuclear material and were identified as gigasomes. A sampling factor was calculated to extrapolate the total quantity of a type of object (particles, particles of interest, gigasomes) in the well. The sampling factor was the percentage of the well's area that was imaged. […] In some experiments, the number of cells in the cell cultures were estimated with a cell counter. […] The normalized quantity or distribution of objects was described as a quantity or distribution of objects per 1000 cells.
Data set [3] relates to neuronal cells. Briefly: Gigasome-mediated extraction of exogenously added Tau fibrils (live plated cells and culture media). Type of data set: cell-based, human. The method, then:
P301S mutant Tau fibrils conjugated to the fluorescent probe ATTO 488 (Table 12) were resuspended at 50 nM in reduced serum-containing media and added to half of the cell-containing wells for 3 hours at 37° C. Following Tau fibrils uptake, cells were trypsinized to remove excess Tau fibrils attached to the cell surface, labeled with Hoechst 33342 to visualize nuclei and CellTracker Orange to visualize the cytoplasm and plated in a new poly-L-lysine-coated 24-well glass bottom plates. Cells were allowed to attach (2-3 hours), before addition of 0.1 μM MG-132 in reduced serum-containing media for additional 18-20 h.
For analysis, 10-15×16-bit images per well were captured with a 20× objective and processed for analysis of gigasome production. Composite images were separated in the different channels. The background was subtracted from the green Tau fibrils cargo channel, as described Example 13.a and the signal thresholded using the “Yen” autothreshold algorithm. The cargo signal (integrated density) in the green channel was measured and normalized to the number of nuclei counted in each field in the Tau-F conditions. […] The quantity or distribution of objects obtained from the particle analysis was divided by the number of cells counted in each field to obtain a normalized quantity or distribution. […]

In data set [4] the test system is neuronal cells. Briefly: Live microscopy of neuronal gigasome generation. It is filed as cell-based, human. The following applies: 0.1 M MG-132; live time-lapse microscopy; compared to DMSO control. As for the experimental part:
Cells were stained with Hoechst 33342 to visualize nuclei and nuclear material, CellTracker Green to visualize cytoplasm, and MitoTracker Deep Red to visualize mitochondria. Gigasome production was then induced with various drugs as described in Example 1. Cell cultures were imaged every 15-30 minutes under a time lapse for up to 48 hours (FIGS. 1A and 1B). For image analysis, ImageJ and Zeiss ZEN Blue software was used. Gigasomes were identified and quantified as distinct circular/spherical vesicles in the extracellular space of the neurons, between 1-20 μm in diameter. Gigasomes were identified based on having positive neuronal cytoplasmic signal and negative Hoechst 33342 signal. The presence of mitochondria in gigasomes was measured via respective fluorescent signal.
Time-lapse montages were produced and edited to show the formation of gigasomes from parent neuronal cells after treatment with […] MG-132 (FIGS. 1A and 1B). Gigasomes and parent cells were identified and tracked throughout the duration of the time lapse. In some experiments, gigasomes produced by parent cells in MG-132 treatment groups were identified.

For data set [5], the system named is neuronal cell line derived from human neuroblastoma. Description: Small molecule compound screen of gigasome production in neuronal monocultures.
Excerpt: To quantify and characterize gigasome production using microscopy, while tracking cell viability/phenotype, a multi-readout system was developed that allowed simultaneous analysis of gigasomes harvested from cell culture media supernatants and respective gigasome producing cell viability. […] For the screening, a total of 99 compounds (TargetMol) were divided in 5 groups. Each group included an untreated condition, a vehicular DMSO control, and a known high-gigasome producing condition to comparatively study gigasome production rates. As a cell death control group, 500 nM Staurosporine was added to induce apoptosis. Cultures were incubated for 24 hours under gigasome inducing conditions at concentrations ranging between 10 nM and 10,000 nM. Before the end of the treatment, live neuronal cultures were imaged. The Zeiss ZEN Blue software was used to distribute imaging fields of view (positions) to create an unbiased imaging sample of a well. 5 images were taken using a Zeiss LSM 900 confocal microscope. […] The BioApps ZEN software package was used to perform cell nucleus segmentation and counting. After 24 hours, gigasomes were harvested from the cell culture media by gently removing from the top of each 96-well ⅔ of the total volume without disturbing the cell layer (containing the settled gigasomes) and by adding to each well the same amount of PBS. The wells were washed twice gently, and the gigasome-containing media/PBS wash was transferred into the well of a 384-well glass bottom plate. Cells remaining in the 96-well plates were assessed for viability using CellTiter-Glo (Promega).
For gigasome analysis in 384-well plates, the Zeiss ZEN Blue software was used to distribute positions to create an unbiased imaging sample of a well. 6 images per well were taken using a Zeiss LSM 900 confocal microscope.
A watershed binary segmentation step was performed to separate grouped objects. For each particle in the mask, characteristic parameters of the particle were calculated and saved.
Particles of interest were identified by thresholding by area and circularity. […] Circularity, defined by the formula 4pi(area/perimeter^2, was set to be between 0.8 and 1, where a value of 1.0 is a perfect circle, and a value of 0 is a line. Gigasomes were identified from the particles of interest by thresholding by mean nuclear signal. The nuclear signal threshold was set using a value equal to one fourth of a threshold value calculated by the Li auto-threshold algorithm applied to the distribution of all particles of interest. Particles of interest with nuclear signal below this value were considered “negative” for nuclear material and were identified as gigasomes. A sampling factor was calculated to extrapolate the total quantity of a type of object (particles, particles of interest, gigasomes) in the well. The sampling factor was the percentage of the well's area that was imaged. […] The normalized quantity or distribution of objects was described as a quantity or distribution of objects per 1000 cells.
For data set [6], the system named is neuronal cells. Description: Gigasome-mediated extraction of APP-CTFs upon γ-secretase and proteasome inhibition (fixed plates, confocal). Type of data set: cell-based, human. The method, then: Cells were treated with the γ-secretase inhibitor L-685,458 at 5 μM, either alone or in combination with the proteasome inhibitor MG-132 at 0.1 μM. A vehicular control amount of DMSO was added to the media to comparatively study cargo signals within cells and gigasomes. Treatments were carried out in reduced serum-containing media (3% FBS) for 24 hours. Disease-related cargo presence within cells and in gigasomes was characterized and quantified by confocal microscopy analysis of 4% paraformaldehyde fixed cells, following (immuno)fluorescent labeling of cytosolic, nuclear and cargo-specific protein markers. In some experiments β-III tubulin and Alexa Fluor® 488 phalloidin were used to mark the cytosol and proximal plasma membrane, respectively. To detect APP-CTFs, an antibody against the C-terminus of APP (C-APP) was used (see Table 12). Non-specific labeling was blocked by incubation with 5% normal goat serum in PBS in the presence of 0.05% saponin, for 1 h at room temperature. Primary antibodies were incubated overnight at 4° C., followed by incubation with Alexa Fluor®-conjugated secondary antibodies for 1 hour at room temperature. Nuclei were counterstained with DAPI.
A range of 5-8 images per well were taken from replicate experiments to capture a final total range of 150-200 cells. […] The cellular cargo fluorescence intensity in the red channel was quantified by subtracting the background signal from each image, using the ImageJ built-in “subtract background” function with a default rolling ball radius of 50 pixel. The cargo signal (integrated density) in the red channel was measured and normalized to the number of nuclei counted in each field. […]
For particle analysis, the cytosolic and F-actin/membrane signals were merged into single RGB image, converted to grayscale and then thresholded to create a cellular mask of objects in the field of view, as calculated by the “Li” autothreshold algorithm. […] The quantity or distribution of objects obtained from the particle analysis was divided by the number of cells counted in each field to obtain a normalized quantity or distribution.

Data set [7] relates to cardiomyocytic cell line derived from human ventricular heart tissue. Briefly: Cell viability in cardiomyocyte compound screen (CellTiter-Glo). Type of data set: cell-based. The following applies: human, 24 h. A general note: Cellular ATP, detected with luciferase, serves as a proxy for viable cell number.
Excerpt: Cells were stained with Hoechst 34580, CellTracker Green/CellMask Green Actin and MitoTracker Deep Red to detect nuclear material, cytoplasm/F-actin, and mitochondria, respectively, and cultured in poly-L-lysine-coated 96-well glass bottom plates at 15,800 cells/cm^2 and allowed to adhere overnight. For the screening, a total of 100 randomly organized compounds (TargetMol) were divided in 5 groups. Each group included an untreated condition, a vehicular DMSO control, and a known high-gigasome producing condition to comparatively study gigasome production rates. As a cell death control group, 500 nM Staurosporine was added to induce apoptosis. Cultures were incubated for 24 hours under gigasome inducing conditions at concentrations ranging between 10 nM and 10,000 nM. […] Cells remaining in the 96-well plates were assessed for viability using CellTiter-Glo (Promega).
The mark [8] stands for this setting: Homo sapiens, Cardiomyocyte, 24 h, read-out: Fold Change of Gigasomes Produced vs. DMSO.

Peptide text beside a SMILES is read from it. * marks the point of attachment. Cbz = O=C(OCc1ccccc1)*

As for `CC(C)C[C@@H](C=O)NC(=O)[C@H](CC(C)C)NC(=O)[C@H](CC(C)C)NC(=O)OCc1ccccc1` [MG-132, reference compound] (Cbz-Leu-Leu-Leu-aldehyde), the Viability is on record as 50-75% in data set [1], 100% in data set [7] (10 nM) and 50-75% in data set [7] (100 nM). Further, in data set [2] (setting [8]), the fold induction at 0.01 µM was in the range of 1.5 to 1.75. The fold induction at 0.1 µM in data set [2] (setting [8]) is over 4; in data set [5] (Homo sapiens, 24 h, read-out: Fold Change of Gigasomes Produced vs. DMSO), 1.5 to 1.75. For the same compound, the “Number of Gigasomes Produced” value in data set [2] (dose 10 nM) is 150-175; in data set [2] (dose 100 nM), over 400; in data set [5] (neuronal cells, dose 100 nM, 24 hours) it was 55-65. Moreover, the “gigasomes per 1000 cells” value in the data set on neuronal cells [3] (gigasomes harvested from cell culture media (FIG. 8E)) is given as “approximately 4.5 per 1000 cells”; with neuronal cells [3] (plated live cells, Tau fibrils 50 nM 3 h, MG-132 0.1 μM 18-20 h (FIG. 8C)), “approximately 325 per 1000 cells”. Besides, in the data set on neuronal cells [4], the gigasome production result was “increase”. The “C-APP+ve particle intensity distribution (gigasome diameter and brightness)” value in the data set with neuronal cells [6] (compared to γ-secretase inhibitor and DMSO conditions (FIG. 6D)) was “larger in diameter and brighter”. Besides, the “intracellular APP-CTF levels (C-APP immunoreactivity)” value in the data set on neuronal cells [6] (γ-secretase inhibitor 5 μM, MG-132 0.1 μM, alone or combined, 24 h, compared to DMSO) was “does not increase”.
